Test results reported in patent publication US20170049884A1, “USE OF ANTI-CCR5 ANTIBODIES IN GRAFT VERSUS HOST DISEASE” (CytoDyn Inc., priority 2014, published 2017).
Read-outs that look alike come from different tables or passages of the source.

Legend:
[1] = tested on: HIV-1JR-FL envelope-mediated membrane fusion; assay type: cell-based
Source text: HIV-1 envelope-mediated membrane fusion was examined using a fluorescence resonance energy transfer (RET) assay (Litwin et al. 1996) with modifications. Briefly, HeLa cells that stably express HIV-1JR-FL gp120/gp41 (Litwin et al. 1996) and CEM.NKR-CCR5 cells (NTH AIDS Research and Reference Reagent Program, (Spenlehauer et al. 2001; Trkola et al. 1999)) were labeled separately overnight with fluorescein octadecyl ester (F18; Molecular Probes, Eugene, Oreg.) and rhodamine octadecyl ester (R18; Molecular Probes), respectively. Cells were washed in phosphate-buffered saline containing 15% feral bovine serum (PBSF) and co-seeded at 15,000 cells/well into a 384-well plate. Inhibitors were added, and the plates were incubated in PBSF plus 0.5% dimethlysulfoxide (DMSO) for 4h at 37°C. prior to measurement of RET using a Victor^2 plate reader (Perkin-Elmer, Boston, Mass.) as previously described (Litwin et al. 1996). The CD4 mAb Leu3a was used as a control inhibitor, and percent inhibition was calculated as: (RET in the absence of inhibitor—RET in the presence of inhibitor)/(RET in the absence of inhibitor—RET in the presence of Leu3a)×100.
(§1) Experimental design and data analysis were based on the combination index (CI) method (Chou et al. 1991; Chou et al. 1984). Compounds were tested individually and in combination at a fixed molar ratio over a range of serial dilutions. […] The mutually exclusive CI formula was used for combinations of CCR5 inhibitors, while the mutually non-exclusive formula was utilized for combinations of inhibitors to distinct targets (Chou et al. 1991). Each test was conducted 4-12 times. Synergy, additivity and antagonism are indicated by CI<1, CI=1 and CI>1, respectively.
(§2) In the Bonferroni correction, P=.alpha,/h, where n is the number of comparisons. Twenty-two synergy comparisons (11 compounds×2 CI values) were made based on data generated in the membrane fusion assay, resulting in a corrected P value of0.0023.

[2] = tested on: reporter viruses pseudotyped with HIV-1JR-FL envelope; assay type: cell-based; details: HIV-1 Envelope JRFL; named 1st inhibitor with 2nd inhibitor PRO 140
Source text: (§3) A self-inactivating (SIN) vector was derived from the pNL4-3ΔEnv-luciferase vector (Dragic et al. 1996) by deleting 507 basepairs in the U3 region of the 3′ long terminal repeat (LTR) so as to remove the TATA, box and transcription factor binding sites. The human cytomegalovirus promoter was inserted upstream of the luciferase (luc) gene to enable expression of luciferase following integration.
(§4) SF162 envelopes were generated by cotransfection of 293T cells with the SIN vector and the appropriate pcDNA env-expressing vector as previously described (Dragic et al, 1996). […] Cultures were incubated for 72 h at 37°C. in DMEM containing 10% fetal bovine serum, […], 0.3 mg/mL geneticin, antibiotics, and 0.5% DMSO. Luciferase activity (relative light units or RLU) was measured using BrightGlo reagent (Promega, Madison, Wis.) according to the manufacturer's instructions. Percent inhibition was calculated as: (1-RLU in the presence of inhibitor/RLU in the absence of inhibitor)×100.
as §1, §2

[3] = tested on: reporter viruses pseudotyped with HIV-1SF162 envelope; assay type: cell-based; details: HIV-1 Envelope SF162; named 1st inhibitor with 2nd inhibitor PRO 140
Source text: as §3, §4, §1, §2

CCR5 [4] = target: T1, CCR5 (Homo sapiens, UniProt P51681); experiment: Competition binding: inhibition of PRO 140-PE binding to CEM.NKR-CCR5 cells; parameters: host or cells: CEM.NKR-CCR5 (transduced human T cell leukemia line); details: for inhibition of PRO 140-PE binding to CEM.NKR-CCR5 cells: in words
Description: Azide was added to block CCR5 internalization during the assay.

CCR5 [5] = target: T1, CCR5; experiment: Competition binding: inhibition of 3H-UK-427,857 binding to CEM.NKR-CCR5 cells; parameters: host or cells: CEM.NKR-CCR5 (transduced human T cell leukemia line)
Source text: The cells were washed in PBSA and lysed with 0.5N HCl prior to scintillation counting using a Wallac1410 instrument.

[6] = single administration of TAK-652 solution; cited from earlier work
[7] = in vivo; cited from earlier work
[8] = tested on: HIV-1 Env-mediated fusion of HeLa-EnvJRFL and CEM NKR-CCR5 cells; experiment: HIV-1 RET cell-cell fusion assay (Part II, Example 1); assay type: cell-based; details: PRO 140 in combination with the named compound; for Mean CF: 1:1 molar ratio, Combination Index at IC50 value
Description: and then diluted in DMSO to 200× the final, concentration to be utilized in the antiviral assay. Serial dilutions of small molecules were conducted in DMSO. Subsequent dilutions were conducted in medium to achieve a final DMSO concentration in the assay of 0.5%. Peptides and mAbs were diluted in PBS in the absence of DMSO.
HeLa cells were engineered to express HIV-1 gp120/gp41 from the macrophage-tropic primary isolate JRFL as described (HeLa-EnvJRFL: Litwin et al., 1996). Briefly, the HIV-1LA1 Env gene was excised from the plasmid pMA243 (Dragic et al., 1992) and the HIV-1JRFL Env gene was inserted. The HIV-1.sub JRFL Env gene was amplified from the plasmid pUCFL112-1 (Koyanagi et al., 1987). The resulting plasmid, designated JR-FL-pMA243, was sequenced by standard methods and transfected into HeLa cells using lipofectin (Gibco BRL/Invitrogen, Carlsbad, Calif.). HeLa-Env.sub JRFL transfectants were selected in methotrexate (Sigma, St. Louis, Mo.) and cloned twice by limiting dilution. The transduced human T cell leukemia line CEM NKR-CCR5 cells were obtained from the NIH AIDS Research and Reference Program (Cat. No. 458).
The HIV-1 RET assay has been described in detail previously (Litwin et al., 1996). Briefly, fluorescein octadecyl ester (F18; Molecular Probes, Eugene, Oreg.; 5 mg/ml in ethanol), was diluted 1:800 in DMEM labeling medium (DMEM; Invitrogen, Carlsbad, Calif.) with 10% fetal bovine serum (FBS; HyClone, Logan, Utah) and adjusted to an A506 of 0.34.+−0.10%. Octadecyl rhodamine B chloride (R18; Molecular Probes; 10 mg/ml in ethanol) was diluted 1:2050 in labeling medium and adjusted to an A565 of 0.52.+−0.10%. Both dyes were further diluted 2-fold by addition to cells in T75-cm^2 flasks. HeLa-EnvJRFL and CEM NKR-CCR5 cells were incubated overnight in F18- and R18-containing culture medium, respectively. The following day, medium from HeLa-EnvJRFL, cells was removed and 10 ml of 0.5 mM EDTA was added and incubated at 37°C. for 5 min. […] The centrifugation/wash step was repeated twice, after which the cells were counted and concentrations adjusted to 1.5×10^6 cells/ml. […] The plates were then read on a fluorescence plate reader (Victor^2, Perkin Elmer, Boston, Mass.) using the excitation/emission filter combinations shown in Table 5.
The “% Inhibition” was calculated according to the following formula: […]
Fifty percent inhibition (IC50) values were determined by fitting the inhibition data with a non-linear, four-parameter, variable slope equation (GraphPad Prism 4.02; GraphPad Software, San Diego, Calif.). […]
Cooperative inhibition effects of drug combinations were determined by the method of Chou and Talalay (1984). […] Combination Index (CI) and Dose Reduction (DR) values were calculated according to the following formulas: […]

CCR5 lymphocytes = assay type: in vivo, human; details: 2 mg/kg
Description: Individuals were treated in sequential, dose-rising cohorts of 5 subjects (4 active and 1 placebo) each and evaluated for up to 120 days post-treatment. […] Safety assessments consisted of monitoring the following: vital signs (blood pressure, pulse, temperature, etc; hematology (hemoglobin, hematocrit, leukocytes, platelets, etc.); serum chemistries (AST/ALT, alkaline phosphatase, BUN, creatinine, etc.); urinalysis (pH, specific gravity, protein, glucose, leukocytes, etc.); and ECGs (12-lead).
Whole blood specimens were combined separately with the indicated phycoerythrin-labeled anti-CCR5 antibodies or with appropriate isotype-control antibodies. Erythocytes were lysed and leukocytes were stabilized using the ImmunoPrep Reagent System (Beckman Coulter), and the cells were analyzed on a TQ Prep™ flow cytometry workstation (Beckman Coulter). Data were expressed as the percent of CCR5 cells relative to all cells gated in the analysis.
For up to 60 days post-treatment, at the times indicated in FIG. 6, blood was collected and analyzed for CCR5 lymphocyte levels.

CCR5 [9] = target: T1, CCR5; experiment: RANTES-induced calcium mobilization in L1.2-CCR5 cells; assay type: cell-based; details: FIG. 4
Source text: Similar results were obtained for MIP-1.alpha, and MIP-1β

HIV-1 = details: repeated administration; cited from earlier work
[10] = named 1st inhibitor with 2nd inhibitor PRO 140, equimolar
[11] = named 1st inhibitor with 2nd inhibitor UK-427,857, equimolar

T1 sequence (P51681 whole entry): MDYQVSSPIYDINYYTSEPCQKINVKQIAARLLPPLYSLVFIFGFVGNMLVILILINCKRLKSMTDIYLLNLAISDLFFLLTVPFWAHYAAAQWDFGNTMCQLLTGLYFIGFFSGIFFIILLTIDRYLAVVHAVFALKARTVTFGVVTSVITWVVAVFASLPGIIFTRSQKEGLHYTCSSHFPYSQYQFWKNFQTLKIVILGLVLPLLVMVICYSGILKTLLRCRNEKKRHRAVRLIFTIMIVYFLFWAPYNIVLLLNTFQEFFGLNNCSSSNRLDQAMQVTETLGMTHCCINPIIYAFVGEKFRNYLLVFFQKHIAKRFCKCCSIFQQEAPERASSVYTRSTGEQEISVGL

Molecule: COc1ccnc2[nH]cc(C(=O)C(=O)N3CCN(C(=O)c4ccccc4)C[C@H]3C)c12 [BMS-378806, (R)-N-(benzoyl)-3-methyl-N′-[(4-methoxy-7-azaindol-3-yl)-oxoacetyl]-piperazine]
- C190 [1, 10]: 1.1 ± 0.22
- CI50 [1, 10]: 1.3 ± 0.19
- CI190 [2]: 0.74 ± 0.23
- CI190 [3]: 0.82 ± 0.21

Molecule: COC[C@@H](c1ccc(C(F)(F)F)cc1)N1CCN(C2(C)CCN(C(=O)c3c(C)ncnc3C)CC2)C[C@@H]1C [SCH-D]
- C190 [1, 10]: 0.36 ± 0.06
- C190 [1, 11]: 0.75 ± 0.02
- CI190 [2]: 0.18 ± 0.04
- CI190 [3]: 0.28 ± 0.11
- impact on percent of cells gated for positive binding of PRO 140-PE (CCR5 [4]): little impact
- inhibition of PRO 140-PE binding to CEM.NKR-CCR5 cells (CCR5 [4]): modest levels of inhibition
- inhibition of 3H-UK-427,857 binding (CCR5 [5]): blocked ^3H-UK-427,857 binding to background levels

Molecule: CCCCOCCOc1ccc(-c2ccc3c(c2)/C=C(/C(=O)Nc2ccc([S+]([O-])Cc4cncn4CCC)cc2)CCCN3CC(C)C)cc1 (centres unmarked) [TAK-652]
- safety and tolerability [6]: safe and well tolerated

Molecule: Cc1ccc(-c2ccc3c(c2)C=C(C(=O)Nc2ccc(C[N+](C)(C)C4CCOCC4)cc2)CCC3)cc1.[Cl-] [TAK-779]
- local tolerability [7]: local injection site irritation

Molecule: Cc1nnc(C(C)C)n1C1CC2CCC(C1)N2CC[C@H](NC(=O)C1CCC(F)(F)CC1)c1ccccc1 (some centres unmarked) [UK-427,857]
- Mean CF [8]: 0.59 ± 0.04
- C190 [1, 10]: 0.40 ± 0.06
- CI50 [1, 10]: 0.61 ± 0.5

Molecule: Cc1ccnc2c1NC(=O)c1cccnc1N2C1CC1 [nevirapine]
- CI190 [2]: 0.73 ± 0.28
- CI190 [3]: 0.63 ± 0.19

Molecule: Cc1cn([C@H]2C[C@H](N=[N+]=[N-])[C@@H](CO)O2)c(=O)[nH]c1=O [zidovudine]
- CI190 [2]: 0.85 ± 0.26
- CI190 [3]: 1.0 ± 0.38

B1: RANTES: CC-chemokine that serves as a natural ligand for CCR5; purchased from R&D Systems (protein, UniProt P13501 24-91, looked up)
C-C motif chemokine 5: SPYSSDTTPCCFAYIARPLPRAHIKEYFYTSGKCSNPAVVFVTRKNRQVCANPEKKWVREYINSLEMS
- Mean CF [8]: 0.59 ± 0.08
- Mean Dose Reduction (Cpd in combination) ([8]; molar ratio 1:5): 1.75 ± 0.28
- Mean Dose Reduction (Cpd in combination) ([8]; molar ratio 5:1): 5.39 ± 1.13
- C190 [1, 10]: 0.43 ± 0.05
- C190 [1, 11]: 0.18 ± 0.01

B2: PRO 140: humanized IgG4,kappa anti-CCR5 mAb; humanized version of the murine mAb PA14 (antibody, chains of the INN, looked up, V domains shown)
VH: EVQLVESGGGLVKPGGSLRLSCAASGYTFSNYWIGWVRQAPGKGLEWIGDIYPGGNYIRNNEKFKDKTTLSADTSKNTAYLQMNSLKTEDTAVYYCGSSFGSNYVFAWFTYWGQGTLVTVSS
VL: DIVMTQSPLSLPVTPGEPASISCRSSQRLLSSYGHTYLHWYLQKPGQSPQLLIYEVSNRFSGVPDRFSGSGSGTDFTLKISRVEAEDVGVYYCSQSTHVPLTFGQGTKVEIK
- CI190 [2]: 0.90 ± 0.15
- CI190 [3]: 0.86 ± 0.33
- binding of antibody 2D7 to CCR5 lymphocytes (CCR5 lymphocytes): significantly decreased
- inhibition of RANTES-induced calcium mobilization vs HIV-1JR-FL replication (CCR5 [9]): blocks HIV-1 but not chemokine signaling
- control of HIV-1 replication (HIV-1): prolonged control of HIV-1 replication without viral escape
- inhibition of PRO 140-PE binding to CEM.NKR-CCR5 cells (CCR5 [4]): Complete inhibition
- inhibition of 3H-UK-427,857 binding (CCR5 [5]; in words): blocked ^3H-UK-427,857 binding to background levels
